Assay results reported in patent publication US8350062B2, “Synthesis and anticancer activity of new actin-targeting small-molecule agents” (priority 2009, dated 2013).

Assays:
Assay in all cases: NCI 60 cell line single dose screen
Assay type in all cases: cell-based, human
[1] = tested on: T-47D; conditions: T-47D (Breast Cancer), 10 micromolar, 48 h
Text: (§1) Analog 10 was screened utilizing 60 different human tumor cell lines, representing leukemia, melanoma and cancers of the lung, colon, brain, ovary, breast, prostate, and kidney in order to show selective growth inhibition or cell killing of particular tumor cell lines. This screen is unique in that the complexity of a 60 cell line dose response produced by a given compound results in a biological response pattern which can be utilized in pattern recognition algorithms (COMPARE program. See: http://dtp.nci.nih.gov/docs/compare/compare.html). Using these algorithms, it is possible to assign a putative mechanism of action to a test compound, or to determine that the response pattern is unique and not similar to that of any of the standard prototype compounds included in the NCI database. In addition, following characterization of various cellular molecular targets in the 60 cell lines, it may be possible to select compounds most likely to interact with a specific molecular target.
(§2) The screening is a two-stage process, beginning with the evaluation of the compound against the 60 cell lines at a single dose of 10 uM.
(§3) The human tumor cell lines of the cancer screening panel are grown in RPMI 1640 medium containing 5% fetal bovine serum and 2 mM L-glutamine. For a typical screening experiment, cells are inoculated into 96 well microtiter plates in 100 μL at plating densities ranging from 5,000 to 40,000 cells/well depending on the doubling time of individual cell lines. After cell inoculation, the microtiter plates are incubated at 37° C., 5% CO2, 95% air and 100% relative humidity for 24 h prior to addition of experimental drug.
(§4) After 24 h, two plates of each cell line are fixed in situ with TCA, to represent a measurement of the cell population for each cell line at the time of drug addition (Tz). Experimental drugs are solubilized in dimethyl sulfoxide at 400-fold the desired final maximum test concentration and stored frozen prior to use. At the time of drug addition, an aliquot of frozen concentrate is thawed and diluted to twice the desired final maximum test concentration with complete medium containing 50 μg/ml gentamicin.
(§5) Following drug addition, the plates are incubated for an additional 48 h at 37° C., 5% CO2, 95% air, and 100% relative humidity. For adherent cells, the assay is terminated by the addition of cold TCA. Cells are fixed in situ by the gentle addition of […] of cold 50% (w/v) TCA (final concentration, 10% TCA) and incubated for 60 minutes at 4° C. The supernatant is discarded, and the plates are washed five times with tap water and air dried. Sulforhodamine B (SRB) solution (100 μl) at 0.4% (w/v) in 1% acetic acid is added to each well, and plates are incubated for 10 minutes at room temperature. After staining, unbound dye is removed by washing five times with 1% acetic acid and the plates are air dried. Bound stain is subsequently solubilized with 10 mM trizma base, and the absorbance is read on an automated plate reader at a wavelength of 515 nm. For suspension cells, the methodology is the same except that the assay is terminated by fixing settled cells at the bottom of the wells by gently adding 50 μl of 80% TCA (final concentration, 16% TCA). Using the absorbance measurements [time zero, (Tz), control growth, (C), and test growth in the presence of drug (Ti)], the percentage growth is calculated.

[2] = tested on: NCI-H522; conditions: NCI-H522 (Non-Small Cell Lung Cancer), 10 micromolar, 48 h
Text: as §1, §2, §3, §4, §5

[3] = tested on: SR; conditions: SR (Leukemia), 10 micromolar, 48 h
Text: as §1, §2, §3, §4, §5

[4] = tested on: RXF 393; conditions: RXF 393 (Renal Cancer), 10 micromolar, 48 h
Text: as §1, §2, §3, §4, §5

[5] = tested on: SF-268; conditions: SF-268 (CNS Cancer), 10 micromolar, 48 h
Text: as §1, §2, §3, §4, §5

[6] = tested on: NCI-H226; conditions: NCI-H226 (Non-Small Cell Lung Cancer), 10 micromolar, 48 h
Text: as §1, §2, §3, §4, §5

[7] = tested on: SN12C; conditions: SN12C (Renal Cancer), 10 micromolar, 48 h
Text: as §1, §2, §3, §4, §5

[8] = tested on: MDA-MB-435; conditions: MDA-MB-435 (Melanoma), 10 micromolar, 48 h
Text: as §1, §2, §3, §4, §5

[9] = tested on: TK-10; conditions: TK-10 (Renal Cancer), 10 micromolar, 48 h
Text: as §1, §2, §3, §4, §5

[10] = tested on: A549/ATCC; conditions: A549/ATCC (Non-Small Cell Lung Cancer), 10 micromolar, 48 h
Text: as §1, §2, §3, §4, §5

[11] = tested on: RPMI-8226; conditions: RPMI-8226 (Leukemia), 10 micromolar, 48 h
Text: as §1, §2, §3, §4, §5

[12] = tested on: NCI-H23; conditions: NCI-H23 (Non-Small Cell Lung Cancer), 10 micromolar, 48 h
Text: as §1, §2, §3, §4, §5

[13] = tested on: OVCAR-5; conditions: OVCAR-5 (Ovarian Cancer), 10 micromolar, 48 h
Text: as §1, §2, §3, §4, §5

[14] = tested on: HCT-116; conditions: HCT-116 (Colon Cancer), 10 micromolar, 48 h
Text: as §1, §2, §3, §4, §5

[15] = tested on: HCT-15; conditions: HCT-15 (Colon Cancer), 10 micromolar, 48 h
Text: as §1, §2, §3, §4, §5

[16] = tested on: 786-0; conditions: 786-0 (Renal Cancer), 10 micromolar, 48 h
Text: as §1, §2, §3, §4, §5

[17] = tested on: U251; conditions: U251 (CNS Cancer), 10 micromolar, 48 h
Text: as §1, §2, §3, §4, §5

[18] = tested on: UO-31; conditions: UO-31 (Renal Cancer), 10 micromolar, 48 h
Text: as §1, §2, §3, §4, §5

[19] = tested on: A498; conditions: A498 (Renal Cancer), 10 micromolar, 48 h
Text: as §1, §2, §3, §4, §5

[20] = tested on: SNB-19; conditions: SNB-19 (CNS Cancer), 10 micromolar, 48 h
Text: as §1, §2, §3, §4, §5

[21] = tested on: SK-MEL-28; conditions: SK-MEL-28 (Melanoma), 10 micromolar, 48 h
Text: as §1, §2, §3, §4, §5

[22] = tested on: EKVX; conditions: EKVX (Non-Small Cell Lung Cancer), 10 micromolar, 48 h
Text: as §1, §2, §3, §4, §5

COCCC(=O)NC[C@H](O)[C@H](C)C(=O)NCCC[C@H]1O[C@@]2(CCC[C@@H](CC[C@H](C)/C=C(\C)[C@H](C)O)O2)CCC1C (stereo partly shown) [Analog 10]
Growth Percent [1]: 71.80% | Growth Percent [2]: 32.60% | Growth Percent [3]: 40.40% | Growth Percent [4]: 26.83% | Growth Percent [5]: 37.08% | Growth Percent [6]: 58.32% | Growth Percent [7]: 57.59% | Growth Percent [8]: 72.88% | Growth Percent [9]: 30.01% | Growth Percent [10]: 44.50% | Growth Percent [11]: 58.70% | Growth Percent [12]: 56.78% | Growth Percent [13]: 61.79% | Growth Percent [14]: 55.84% | Growth Percent [15]: 58.89% | Growth Percent [16]: 50.94% | Growth Percent [17]: 50.08% | Growth Percent [18]: 22.67% | Growth Percent [19]: 1.82% | Growth Percent [20]: 75.95% | Growth Percent [21]: 71.16% | Growth Percent [22]: 29.10%
